# Numbers after ± are expanded uncertainties.
# Experiment: of the first substance listed, at infinite dilution; xn = mol fraction of the nth substance listed
# Settings: 298.15 K; 100 kPa; Liquid; isoperibol calorimeter; x1 = 0
row,Structure (SMILES),partial molar enthalpy [kcal/mol]
1,CCCCOCCCN [3-butoxy-1-propanamine] + O,-7.294 ± 0.0574
2,CCOCCCN [3-ethoxy-1-propanamine] + O,-6.582 ± 0.0526

# Source: the NIST ThermoML archive (doi:10.1021/acs.jced.7b00900)
